Reference: patent publication US7879823B2, “Topical anti-cancer compositions and methods of use thereof” (Johnson & Johnson Consumer Companies, priority 1999, dated 2011)

B1: BBI: Bowman-Birk protease inhibitor (BBI; 0.8 mg; T97770, Sigma) in 100 ul liposomes (protein, UniProt P01055 40-110, looked up)
Bowman-Birk type proteinase …: DDESSKPCCDQCACTKSNPPQCRCSDMRLNSCHSACKSCICALSYPAQCFCVDITDFCYEPCKPSEDDKEN
modifications: in liposomes
notes: 0.8 mg; T97770, Sigma) in 100 ul liposomes
B2: STI: trypsin inhibitor (STI; 0.8 mg; T9003, Sigma) in 100 ul liposomes (protein, UniProt P01070 25-205, looked up)
Trypsin inhibitor A: DFVLDNEGNPLENGGTYYILSDITAFGGIRAAPTGNERCPLTVVQSRNELDKGIGTIISSPYRIRFIAEGHPLSLKFDSFAVIMLCVGIPTEWSVVEDLPEGPAVKIGENKDAMDGWFRLERVSDDEFNNYKLVFCPQQAEDDKCGDIGISIDHDDGTRRLVVSKNKPLVVQFQKLDKESL
modifications: in liposomes
notes: 0.8 mg; T9003, Sigma) in 100 ul liposomes

System: Skin Tumors in SKH-1 Mice Previously Treated with Ultraviolet B Light
Experiment: Development of skin tumors in high-risk SKH-1 mice previously treated with UVB, topical application
Assay type: in vivo
Details: for Effect on tumor growth / tumor progression (tumor volume per mouse), in words: daily topical treatment, 21 weeks of the treatment phase, relative to control; for Percent of mice with tumors / Tumor volume per mouse / Tumor volume per tumor / Tumors per mouse: topical once a day 5 days per week
Text: Co. (Byran, Ohio). […] Controls include vehicle alone and an unrelated protein (BSA). […] Louis, Mo.). Acetone was from Fisher Scientific (Springfield, N.J.).

| Molecule | Percent of mice with tumors (week 0) | Tumor volume per mouse (week 0) [mm^3] | Tumor volume per tumor (week 0) [mm^3] | Tumors per mouse (week 0) | Percent of mice with tumors (week 6) [%] | Tumor volume per mouse (week 6) [mm^3] | Tumor volume per tumor (week 6) [mm^3] | Tumors per mouse (week 6) | Tumor volume per mouse (week 9) [mm^3] | Tumor volume per tumor (week 9) [mm^3] | Tumors per mouse (week 9) | Percent of mice with tumors (week 12) [%] | Tumor volume per mouse (week 12) [mm^3] | Tumor volume per tumor (week 12) [mm^3] | Tumors per mouse (week 12) | Percent of mice with tumors (week 15) [%] | Tumor volume per mouse (week 15) [mm^3] | Tumor volume per tumor (week 15) [mm^3] | Tumors per mouse (week 15) | Percent of mice with tumors (week 18) [%] | also measured |
| --- | --- | --- | --- | --- | --- | --- | --- | --- | --- | --- | --- | --- | --- | --- | --- | --- | --- | --- | --- | --- | --- |
| Cn1c(=O)c2c(ncn2C)n(C)c1=O [Caffeine, caffeine] | 0 | 0 | 0 | 0 | 16.7 | 0.2 ± 0.1 | 1.3 ± 0.7 | 0.2 ± 0.1 | 0.7 ± 0.5 | 3.4 ± 2.2 | 0.2 ± 0.1 | 50.0 | 4.0 ± 1.9 | 3.2 ± 0.8 | 1.3 ± 0.4 | 56.7 | 6.7 ± 2.2 | 3.2 ± 0.6 | 2.1 ± 0.5 | 80.0 | Effect on tumor growth / tumor progression (tumor volume per mouse), in words: marked delay in tumor progression; Number of tumors per mouse, in words (following topical treatment): reduced; Percent of tumor-bearing mice, in words (following topical treatment): reduced; Tumor volume per tumor, in words (following topical treatment): reduced; Tumor volume per mouse (week 18): 22.1 ± 6.2 mm^3; Tumor volume per tumor (week 18): 6.2 ± 1.3 mm^3; Tumors per mouse (week 18): 3.6 ± 0.6; Percent of mice with tumors (week 21): 76.7%; Tumor volume per mouse (week 21): 21.5 ± 6.0 mm^3; Tumor volume per tumor (week 21): 5.3 ± 1.0 mm^3; Tumors per mouse (week 21): 4.0 ± 0.7 |
| BSA in liposomes: bovine serum albumin (0.8 mg) in 100 ul liposomes; unrelated protein control | 0 | 0 | 0 | 0 | 20.0 | 0.6 ± 0.5 | 2.5 ± 1.9 | 2.0 ± 0.1 | 2.9 ± 1.4 | 2.7 ± 1.2 | 1.1 ± 0.3 | 80.0 | 9.1 ± 3.1 | 3.5 ± 1.0 | 2.6 ± 0.6 | 90.0 | 21.4 ± 6.6 | 4.0 ± 0.7 | 5.3 ± 0.8 | 90.0 | Percent of mice with tumors (week 9): 50.0%; Tumor volume per mouse (week 18): 41.1 ± 9.7 mm^3; Tumor volume per tumor (week 18): 6.3 ± 1.0 mm^3; Tumors per mouse (week 18): 6.5 ± 0.9; Percent of mice with tumors (week 21): 90.0%; Tumor volume per mouse (week 21): 44.7 ± 11.6 mm^3; Tumor volume per tumor (week 21): 6.3 ± 1.0 mm^3; Tumors per mouse (week 21): 7.1 ± 0.8 |
| B1 | 0 | 0 | 0 | 0 | 30.0 | 0.3 ± 0.1 | 0.9 ± 0.3 | 0.4 ± 0.1 | 1.0 ± 0.7 | 1.7 ± 0.8 | 0.6 ± 0.2 | 50.0 | 3.7 ± 1.8 | 2.4 ± 0.8 | 1.5 ± 0.4 | 66.7 | 9.0 ± 2.4 | 4.1 ± 0.8 | 2.2 ± 0.4 | 76.7 | Percent of mice with tumors (week 9): 27.6%; Tumor volume per mouse (week 18): 19.0 ± 4.6 mm^3; Tumor volume per tumor (week 18): 5.9 ± 1.3 mm^3; Tumors per mouse (week 18): 3.2 ± 0.6; Percent of mice with tumors (week 21): 90.0%; Tumor volume per mouse (week 21): 33.2 ± 9.6 mm^3; Tumor volume per tumor (week 21): 7.4 ± 2.0 mm^3; Tumors per mouse (week 21): 4.5 ± 0.6 |
| B2 | 0 | 0 | 0 | 0 | 16.7 | 0.8 ± 0.6 | 3.5 ± 1.9 | 0.2 ± 0.1 | 2.6 ± 1.4 | 3.0 ± 1.4 | 0.9 ± 0.2 | 46.7 | 9.4 ± 3.9 | 4.8 ± 1.3 | 1.9 ± 0.5 | 55.2 | 17.8 ± 7.9 | 5.8 ± 2.1 | 3.1 ± 0.7 | 63.3 | Effect on tumor growth / tumor progression (tumor volume per mouse), in words: unexpected and significant effect on tumor progression; Percent of mice with tumors (week 9): 41.4%; Tumor volume per mouse (week 18): 30.7 ± 11.9 mm^3; Tumor volume per tumor (week 18): 7.3 ± 2.2 mm^3; Tumors per mouse (week 18): 4.2 ± 0.9; Percent of mice with tumors (week 21): 80.0%; Tumor volume per mouse (week 21): 48.7 ± 23.3 mm^3; Tumor volume per tumor (week 21): 8.6 ± 3.2 mm^3; Tumors per mouse (week 21): 5.6 ± 0.9 |
